According to PubChem BioAssay (NCI):
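A five-concentration, 48-hour dose response in 96-well plates underlies each endpoint, interpolated linearly between surrounding concentrations. Definition used: TGI = concentration required for complete inhibition of growth.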

Columns and labels:
Experiment in all cases: NCI tumour cell line growth inhibition, 48 h
DMS 273 small cell lung = test system: DMS 273 small cell lung
LXFL 529 NSCLC = test system: LXFL 529 NSCLC
M19-MEL melanoma = test system: M19-MEL melanoma
XF 498 CNS = test system: XF 498 CNS
HOP-18 NSCLC = test system: HOP-18 NSCLC
RXF-631 renal = test system: RXF-631 renal

Structure (SMILES)	TGI (DMS 273 small cell lung) [µM]	TGI (LXFL 529 NSCLC) [µM]	TGI (M19-MEL melanoma) [µM]	TGI (XF 498 CNS) [µM]	TGI (HOP-18 NSCLC) [µM]	TGI (RXF-631 renal) [µM]
CN(C)CC(/C(Cc1ccccc1)=N\NC(=S)NN)c1ccccc1 (configuration not stated)	> 100	> 100	> 100	> 100	–	–
O=C(Nc1nc2ncn(CCO)c2c(=O)[nH]1)c1ccccc1	> 100	> 100	> 100	–	> 100	–
CC(=O)Nc1ccc(S(=O)(=O)NN(C)S(=O)(=O)c2ccc(C)cc2)cc1	–	–	> 100	–	–	–
COc1cc(-c2cc(=O)c3ccccc3[nH]2)cc(OC)c1OC	> 75	> 75	> 75	–	–	–
COCCOCOC(C)(C)[C@H](CCO)O[Si](c1ccccc1)(c1ccccc1)C(C)(C)C	–	21.6	26.9	13.5	31.9	21.7
Oc1cccnc1/C=N/OCc1ccccc1	> 100	> 100	> 100	> 100	–	–
O=C(O)C12CC3CC(CC(F)(C3)C1)C2	> 100	> 100	> 100	> 100	–	–
O=c1ccc2ccccc2c2ccccc12	14.3	10.4	10.7	–	14.9	–
CSc1ccc2c(cc1=O)C(NC(=O)c1ccc(C#N)cc1)CCc1cc(O)c(O)c(O)c1-2 (configuration not stated)	> 100	44.4	39	89.2	–	> 100
CC(C)N(C(=O)C12C3C4C1C1C2C3C41C(=O)N(C(C)C)C(C)C)C(C)C (configuration not stated)	> 50	> 50	> 50	> 50	–	> 50
COC(=O)c1ccc(C=C(C#N)C#N)cc1	35.2	37.4	75.4	–	> 100	> 100
Nc1nc2c(ncn2CCCC(c2ccccc2)P(=O)(O)O)c(=O)[nH]1 (configuration not stated)	> 100	> 100	> 100	–	> 100	–
CSC(=N)N1N=C2/C(=C/c3ccccc3)CCC[C@H]2[C@H]1c1ccccc1	11.8	16.7	–	23.5	14.3	–
Cc1nnc(N/N=C(/C(=O)C(C#N)c2ccc(Cl)cc2)C(C#N)c2ccc(Cl)cc2)n1N (configuration not stated)	34	26.6	–	46.6	30	35.4
COC(=O)CCC(NC(=S)N/N=C(\C)c1cnccn1)C(=O)OC (configuration not stated)	–	> 100	> 100	> 100	> 100	> 100
